Values quoted from earlier work in patent US12290596B2, “Compositions and methods for the treatment of opioid overdose” (priority 2021, dated 2025).

Conditions: intranasal formulation with […] Intravail; cited from earlier work

## CNS(=O)(=O)Cc1ccc2[nH]cc(CCN(C)C)c2c1 [sumatriptan]
  Increase of maximum plasma concentration in comparison to Imitrex nasal spray: almost four-fold
  Increase of total exposure (AUC): 32%
  Tmax: 8 to 10 min
